For 32 compounds, EC50 and Emax results are on record in patent US20230000842A1, “METHODS OF TREATING CARTILAGE DISORDERS THROUGH INHIBITION OF CLK AND DYRK” (SAMUMED, LLC, priority 2019, published 2023).

The structures appear in SMILES notation.

Assay [1] has as its system Wnt pathway activity (SW480 colon carcinoma cells stably expressing the Sp5-Luc reporter). Nature of the assay: Wnt pathway activity screening assay (Sp5-Luc reporter gene assay). The note with it: Homo sapiens, SW480, Table 4; SW480 cells stably expressing Sp5-Luc reporter, 10-point dose-response from 10 μM, 36 to 48 hours. A general note: In a reporter assay the amount or activity of a reporter protein is the signal.
Experimental: The screening assay for Wnt pathway activity is described as follows.
SW480 colon carcinoma cells were transduced with a lentiviral vector expressing luciferase with a human Sp5 promoter consisting of a sequence of eight TCF/LEF binding sites. […] These stably transduced SW480 cells were expanded in cell culture and used for all further screening activities. Each compound was dissolved in DMSO as a 10 mM stock and used to prepare compound source plates. Serial dilution (1:3, 10-point dose-response curves starting from 10 μM) and compound transfer was performed using the ECHO 550 (Labcyte, Sunnyvale, Calif.) into 384-well white solid bottom assay plates (Greiner Bio-One) with appropriate DMSO backfill for a final DMSO concentration of 0.1%. […] Following incubation, 15 μl of BriteLite Plus luminescence reagent (Perkin Elmer) was added to each well of the 384-well assay plates. The plates were placed on an orbital shaker for 2 min and then luminescence was quantified using the Envision (Perkin Elmer) plate reader.

The subject of assay [2] is MMP-3 levels in supernatant of chondrocytes stimulated with IL1-β. The assay is described as follows: Chondrocyte protection assay compound screening (MMP-3 LANCE Ultra). In kind it is cell-based, human. The note with it: Homo sapiens, Chondrocyte, IL1-β 10 ng/mL overnight, 11-point curves from 3 μM to 0.05 nM; for Emax: read-out: Maximum % Inhibition. The procedure, abridged:
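Primary human chondrocytes (passage 2–5) in differentiation medium were stimulated with 10 ng/mL IL1-β for an overnight incubation at 37 °C. MMP-3 in 1:7-diluted supernatant was read by TR-FRET immunoassay against a standard curve, normalised to IL1-β-stimulated wells; EC50 and maximum % inhibition came from nonlinear regression.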

In the next assay the target is CLK2 kinase (Homo sapiens, UniProt P49760). Nature of the assay: CLK2 kinase activity assay (Z-lyte FRET).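 Further: FRET read-out as coumarin to fluorescein emission ratio, unphosphorylated peptide as 0% and phosphorylated peptide as 100% controls, duplicate reactions, non-linear regression fit of dose-response curves.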 In kind it is biochemical. The note with it: Z-lyte Ser/Thr 6 peptide, 60 μM ATP, 1 h at room temperature.
Chain of CLK2 kinase (P49760 whole entry): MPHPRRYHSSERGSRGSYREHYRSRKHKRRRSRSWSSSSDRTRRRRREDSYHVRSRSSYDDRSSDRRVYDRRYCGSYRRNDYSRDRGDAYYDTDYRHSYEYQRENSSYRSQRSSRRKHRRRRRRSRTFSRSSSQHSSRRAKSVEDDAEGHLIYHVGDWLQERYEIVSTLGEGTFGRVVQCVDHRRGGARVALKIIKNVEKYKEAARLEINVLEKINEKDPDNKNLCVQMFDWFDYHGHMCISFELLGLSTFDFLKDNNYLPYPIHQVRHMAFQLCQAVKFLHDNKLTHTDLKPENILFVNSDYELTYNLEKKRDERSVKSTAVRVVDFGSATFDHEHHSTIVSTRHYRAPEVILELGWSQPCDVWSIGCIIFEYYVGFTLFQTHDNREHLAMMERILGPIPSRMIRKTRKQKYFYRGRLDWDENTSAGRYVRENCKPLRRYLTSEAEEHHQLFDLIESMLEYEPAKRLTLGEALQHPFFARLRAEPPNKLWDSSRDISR
The target of another assay is CLK3 kinase (Homo sapiens, UniProt P49761). The assay is described as follows: CLK3 kinase activity assay (Z-lyte FRET).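 Further: kinase activity read as coumarin/fluorescein emission ratio by FRET, unphosphorylated peptide as 0% and phosphorylated peptide as 100% control, values from non-linear regression of dose-response curves.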 Type of assay: biochemical. The note with it: Z-lyte Ser/Thr 18 peptide, 156 μM ATP, 1 h at room temperature.
Chain of CLK3 kinase (P49761 whole entry): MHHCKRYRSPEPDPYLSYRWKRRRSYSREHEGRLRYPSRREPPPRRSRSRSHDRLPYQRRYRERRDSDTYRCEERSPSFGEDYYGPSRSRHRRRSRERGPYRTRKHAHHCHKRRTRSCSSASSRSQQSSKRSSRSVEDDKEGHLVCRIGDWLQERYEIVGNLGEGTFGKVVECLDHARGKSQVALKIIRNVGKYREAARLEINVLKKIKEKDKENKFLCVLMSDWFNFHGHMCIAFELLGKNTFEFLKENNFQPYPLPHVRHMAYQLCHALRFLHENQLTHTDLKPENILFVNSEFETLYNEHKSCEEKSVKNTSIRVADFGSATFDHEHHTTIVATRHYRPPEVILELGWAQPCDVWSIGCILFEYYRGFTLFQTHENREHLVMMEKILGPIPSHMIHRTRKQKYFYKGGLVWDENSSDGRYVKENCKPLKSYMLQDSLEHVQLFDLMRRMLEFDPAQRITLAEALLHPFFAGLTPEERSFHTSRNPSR

A word on the EC50: it is the midpoint of the concentration-response curve. Take `O=C(Nc1ccc(OC(CO)CO)nc1)c1n[nH]c2ccc(-c3cncc(CN4CCCCC4)c3)cc12` [compound 83]: the EC50 in assay [1] worked out at 500 nM; in assay [2] it was 303 nM; at CLK2 kinase, 5 nM; on CLK3 kinase, 73 nM.
For the compound `Nc1ncc(NC(=O)c2n[nH]c3ccc(-c4cncc(CN5CCCCC5)c4)cc23)cn1` [compound 96], the EC50 in assay [1] was found to be 30 nM; in assay [2], 180 nM; at CLK2 kinase, 1 nM; on CLK3 kinase, 17 nM. Also, the Emax in assay [2] is 100%.
Consider `Cc1nnc(C(=O)Nc2cc3cc(-c4cncn4C)ccc3cn2)s1` [compound 584], for which the EC50 in assay [1] is 1890 nM; in assay [2], 71.5 nM; at CLK2 kinase, 6 nM; at CLK3 kinase, 177 nM. In addition, the Emax in assay [2] is 38.6%.
On the same counts, the results for `O=C(NCc1cc(F)cc(F)c1)c1n[nH]c2ccc(-c3cncc(CN4CCCCC4)c3)cc12` [compound 77] are 1820 nM, ≥ 3000 nM, 6 nM, 1670 nM and 84.8%.
For `Cc1[nH]nc(C(=O)Nc2ccc(CN3CCCC3)cc2)c1/C=C/c1cccnc1` [compound 18], in that order: 2150 nM, 1050 nM, 20 nM, 3990 nM and 25.5%.
`Cc1n[nH]c2ccc(-c3cncc(OC[C@@H]4Cc5ccccc5CN4)n3)cc12` [compound 50]: the EC50 in assay [1] was 2810 nM; in assay [2], ≥ 3000 nM; at CLK2 kinase it was 27 nM; on CLK3 kinase, 5730 nM. Moreover, in assay [2], the Emax was found to be 44.4%.
For the compound `Cc1n[nH]c2ccc(-c3cncc(N[C@H]4CC[C@H](O)CC4)n3)cc12` [compound 43], the EC50 in assay [1] is 95 nM; in assay [2], ≥ 3000 nM; on CLK2 kinase, 1 nM; at CLK3 kinase it was 309 nM. Besides, the Emax in assay [2] was determined as 41.9%.
For `COc1ccc(NC(=O)c2n[nH]c3ccc(-c4cncc(CO)c4)cc23)cn1` [compound 67], in that order: 96.6 nM, ≥ 3000 nM, 1 nM, 41 nM and 48.7%.
On the same counts, the results for `CC#CC(=O)Nc1cc2cc(-c3cnn(C)c3)ccc2cn1` [compound 539] are 513 nM, 32.8 nM, 7 nM, 123 nM and 42.3%.
As for `Cc1n[nH]c2ccc(-c3cncc(NCC4(F)CNC4)n3)cc12` [compound 48], the EC50 in assay [1] was 780 nM; in assay [2], 2270 nM; on CLK2 kinase it was 3 nM; at CLK3 kinase, 1100 nM. For the same compound, the Emax in assay [2] stood at 100%.
On the same counts, the results for `COc1cncc(C(=O)Nc2c[nH]nc2C(=O)Nc2ccc(CN(C)C)cc2)c1` [compound 4] are 123 nM, ≥ 3000 nM, 57 nM, 6610 nM and 99.9%.
`O=C(Nc1cccnc1)c1n[nH]c2ncc(-c3cccnc3)cc12` [compound 61]: the EC50 in assay [1] was determined as 795 nM; in assay [2], 2.2 nM; on CLK2 kinase, 8 nM; at CLK3 kinase, 916 nM. In addition, in assay [2], the Emax worked out at 69.2%.
Regarding `Fc1ccc(-c2cncc3[nH]c(-c4n[nH]c5cnc(-c6cncc(CN7CCCC7)c6)cc45)nc23)s1` [compound 264], the EC50 in assay [1] was 470 nM; in assay [2], ≥ 3000 nM; on CLK2 kinase it was 2 nM; at CLK3 kinase it was 35 nM. Also, the Emax in assay [2] was found to be 81%.
For `Cn1ncc(-c2ccc3cnc(NC(=O)C4CCN(C(=O)c5ccccc5)CC4)cc3c2)c1CN1CCCCC1` [compound 571], the 50% effective concentration (EC50) in assay [1] turned out to be 706 nM; in assay [2], 35 nM; on CLK2 kinase, 7 nM; on CLK3 kinase, 318 nM. For the same compound, the Emax in assay [2] was 51%.
On the same counts, the results for `CCNCc1cncc(-c2ccc3[nH]nc(-c4nc5c(-c6ccccn6)nccc5[nH]4)c3c2)c1` [compound 199] are 2130 nM, 2.4 nM, 2 nM, 136 nM and 80.9%.
`Cc1n[nH]c2ccc(-c3cncc(N4CCC[C@H](N)C4)n3)cc12` [compound 38]: the EC50 in assay [1] is 1430 nM; in assay [2], ≥ 3000 nM; on CLK2 kinase, 35 nM; at CLK3 kinase, 8010 nM. Besides, the Emax in assay [2] is 97.5%.
Consider `CC(C)(C)C(=O)Nc1cncc(-c2ccc3[nH]nc(-c4nc5c(-c6cccnc6)cncc5[nH]4)c3c2)c1` [compound 188], for which the EC50 in assay [1] was determined as 85.4 nM; in assay [2] it was 1100 nM; on CLK2 kinase, 3 nM; on CLK3 kinase it was 23 nM. Also, in assay [2], the Emax came to 100%.
In the case of `Cc1ncc(-c2ccc3[nH]nc(-c4nc5c(-c6cc(F)cc(NCCN(C)C)c6)ccnc5[nH]4)c3n2)n1C` [compound 287], the EC50 in assay [1] worked out at 620 nM; in assay [2] it was 12.8 nM; at CLK2 kinase, 4 nM; on CLK3 kinase it was 44 nM. Moreover, the Emax in assay [2] came out at 74.2%.
Regarding `Cc1n[nH]c2ccc(-c3cncc(OCC4(F)CNC4)n3)cc12` [compound 49], the EC50 in assay [1] worked out at 3250 nM; in assay [2], 3.5 nM; on CLK2 kinase, 6 nM; at CLK3 kinase, 2200 nM. Further, in assay [2], the Emax stood at 66.1%.
On the same counts, the results for `O=C(Nc1ccc(OCCN2CCCC2)cc1)c1n[nH]cc1/C=C/c1cccnc1` [compound 19] are 1850 nM, ≥ 3000 nM, 6 nM, 967 nM and 31.1%.
On the same counts, the results for `CC(C)n1cc(C(=O)Nc2cc3cc(-c4cncc(NC5CCN(C)CC5)n4)ncc3cn2)cn1` [compound 614] are 164 nM, ≥ 3000 nM, 7 nM, 97 nM and 41.1%.
Turning to `Cc1ncc(NC(=O)c2n[nH]c3ccc(-c4cnn(C5CCN(C)CC5)c4)cc23)s1` [compound 114], the EC50 in assay [1] was 95 nM; in assay [2], ≥ 3000 nM; at CLK2 kinase, 1 nM; at CLK3 kinase it was 48 nM. Besides, the Emax in assay [2] turned out to be 62.8%.
For `CN1CCC(Oc2ccc(NC(=O)c3n[nH]c4ccc(-c5ccc(N)nc5)cc34)cc2)CC1` [compound 66], in that order: 477 nM, 4.9 nM, 1 nM, 49 nM and 62.6%.
On the same counts, the results for `Cn1cc(-c2ccc3cnc(NC(=O)c4ccc5nccnc5c4)cc3n2)cn1` [compound 608] are 447 nM, ≥ 3000 nM, 8 nM, 141 nM and 18.3%.
Take `CS(=O)(=O)c1ccc(NC(=O)c2n[nH]c3ccc(-c4cncc(CN5CCCCC5)c4)cc23)cn1` [compound 89]: the EC50 in assay [1] is 27 nM; in assay [2], 5.5 nM; at CLK2 kinase it was 1 nM; at CLK3 kinase, 14 nM. Besides, the Emax in assay [2] is 79.8%.
For `O=C(Nc1cccnc1)c1n[nH]c2ccc(-c3cncc(CN4CCS(=O)(=O)CC4)c3)cc12` [compound 100], in that order: 210 nM, 616 nM, 1 nM, 37 nM and 8.6%.
With `O=C(Nc1ccc(CN2CCCC2)cc1)c1n[nH]c2ccc(-c3cncnc3)cc12` [compound 103], the EC50 was 1310 nM in assay [1], 307 nM in assay [2], 2 nM on CLK2 kinase and 1430 nM on CLK3 kinase. Also, the Emax in assay [2] is 36.3%.
On to `O=C(Nc1ccc(N2CCNCC2)nc1)c1n[nH]cc1/C=C/c1cccnc1` [compound 20], for which the EC50 in assay [1] was 1650 nM; in assay [2], 0.2 nM; at CLK2 kinase it was 5 nM; at CLK3 kinase, 563 nM. Further, in assay [2], the Emax amounted to 72.6%.
With `O=C(Nc1ccc(OC(F)F)cc1)c1n[nH]c2ccc(-c3cnc4n3CCNC4)cc12` [compound 116], the EC50 came out at 684 nM in assay [1], 13 nM in assay [2], 1 nM at CLK2 kinase and 391 nM on CLK3 kinase. Also, in assay [2], the Emax was 61.2%.
On the same counts, the results for `c1cnc2cc(-c3n[nH]c4ccc(-c5cncc(CN6CCCCC6)c5)cc34)[nH]c2c1` [compound 449] are 165 nM, 319 nM, 2 nM, 19 nM and 100%.
For `CN1CCC(Oc2ccc(NC(=O)c3n[nH]cc3/C=C/c3cccnc3)cn2)CC1` [compound 21], in that order: 964 nM, ≥ 3000 nM, 4 nM, 733 nM and 92.6%.
On the same counts, the results for `Cc1cn(-c2cncc3[nH]c(-c4n[nH]c5ccc(-c6cncc(NC(=O)CC(C)C)c6)cc45)nc23)cn1` [compound 225] are 4570 nM, 845 nM, 2 nM, 16 nM and 89.2%.
